How the values were obtained:
RXRα = target: T1, RXRα (Homo sapiens, UniProt P19793); experiment: subcellular localization of RXRα by immunostaining / confocal microscopy; format: cell-based
T1 sequence (P19793 1-462): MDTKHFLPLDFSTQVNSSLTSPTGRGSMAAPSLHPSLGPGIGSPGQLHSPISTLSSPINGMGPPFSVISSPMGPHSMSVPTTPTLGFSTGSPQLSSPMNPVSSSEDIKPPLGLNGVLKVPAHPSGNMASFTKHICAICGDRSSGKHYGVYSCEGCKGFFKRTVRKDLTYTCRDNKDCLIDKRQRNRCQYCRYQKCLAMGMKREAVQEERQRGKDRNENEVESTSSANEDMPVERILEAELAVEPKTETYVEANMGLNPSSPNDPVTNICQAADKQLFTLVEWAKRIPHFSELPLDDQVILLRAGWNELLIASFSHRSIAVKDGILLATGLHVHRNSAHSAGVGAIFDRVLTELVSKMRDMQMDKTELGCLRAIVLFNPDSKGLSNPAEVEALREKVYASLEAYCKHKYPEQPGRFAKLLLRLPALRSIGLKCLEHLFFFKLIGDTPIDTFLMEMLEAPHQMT
Experimental: Expression vector for Flag-RXRα was transfected into the indicated cell line. Cells were then treated with 15d-PGJ2 (5.micro.M) for 3 hr, then immunostained with anti-Flag antibody to detect RXRα Flag-RXRα was visualized by confocal microscopy.
Expression vectors for Flag-RXRα and GFP-TR3 were transfected into PC12 cells alone or together. Cells were then treated with 15d-PGJ2 (5.micro.M) for 3 hr, then immunostained with anti-Flag antibody to detect RXRα Flag-RXRα and GFP-TR3 were visualized by confocal microscopy, and their images merged.
Cos7 cells were transfected with GFP-RXRα and Mito-REP, and treated with or without 10^-4 M indomethacin or diclofenac for 4 hours. The distribution of GFP-RXRα and Mito-REP was visualized by confocal microscopy.
For example, cells such as LNCaP prostate cancer cells are induced to apoptosis using agents such as the phorbol ester, TPA (12-0-tetradecanolphorbol 13-acetate, Cell Signaling Technology Cat. No.: 9905).
For example, heat shock protein 60 (Hsp60) is a mitochondrial specific protein. […] The treated cells are then incubated with a conjugated secondary antibody and visualized using confocal microscopy. In this example, Cy-3 or FITC conjugated secondary antibodies were used for visualizing the sub-cellular localization of RXRα or Hsp60, respectively.
A GFP-RXRα expression vector was transfected into COS-7 cells and GFP-RXRα was expressed.
A fusion protein created by combining GFP and amino acids 348-398 of RXRα, is transfected into HEK293T cells.
To determine the role of 15d-PGJ2 binding on the new RXR pathway, a confocal microscopy analysis was performed to determine subcellular localization of RXRα in the presence or absence of 15d-PGJ2.
Because RXR heterodimerizes with TR3, Inventor examined the effect of 15d-PGJ2 on TR3 subcellular localization in PC12 phaeochromocytoma cells.
To determine the mechanism of RXRα mediated apoptosis in the presence of sulindac sulfide, Inventors examined the effect of sulindac sulfide on subcellular localization of RXRα

RXR.alpha = target: T2, RXR.alpha (Homo sapiens, UniProt P19793); experiment: isothermal titration calorimetry (ITC); format: binding; conditions: data not shown
T2 sequence (P19793 1-462): T1 sequence (P19793 1-462)
Experimental: ITC is a thermodynamic technique for monitoring the binding reaction of two components. When a protein binds a ligand, heat is either generated or absorbed, and quantitation of this heat allows very accurate determination of the binding dissociation constant (kD), reaction stoichiometry (n), enthalpy and entropy. Heat effects a small as 0.2.micro.cal can be measured and titrations can be done on as little as 1 ml of a dilute solution. (See generally, Pierce, M. M., Raman, C. S., and Nall, B. T., Methods, (1999) 19: 213-21)

RXRα LBD protein = target: T3, RXRα LBD protein (Homo sapiens, UniProt P19793); experiment: sensitivity of RXRα protein to chymotrypsin digestion; format: biochemical; conditions: 100 μM sulindac sulfide
T3 construct: made in house; host or cells: E. coli BL21 (pET vector, Novagen)
T3 sequence (P19793 224-462): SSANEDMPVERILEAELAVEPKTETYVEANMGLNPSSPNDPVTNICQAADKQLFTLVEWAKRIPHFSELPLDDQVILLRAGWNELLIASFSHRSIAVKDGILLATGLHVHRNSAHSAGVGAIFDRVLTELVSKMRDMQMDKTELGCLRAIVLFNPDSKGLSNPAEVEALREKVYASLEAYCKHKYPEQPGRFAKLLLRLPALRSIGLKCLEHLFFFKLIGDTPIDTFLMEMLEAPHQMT
Experimental: (FIG. 12b). LBD protein was incubated in the absence (DMSO) or presence of sulindac sulfide (100.micro.M) and then subjected to digestion by chymotrypsin for 30 min. Briefly, SEQ ID No.: 11 was cloned into the pET vector system available from Novagen and the recombinant vector was transformed into and expressed in BL21 cells. Digested reactions were separated by SDS-PAGE and visualized by Commassie blue staining. 35^S RXR protein was incubated for 30 minutes at room temperature in the presence or absence of 100.micro.M sulindac sulfide. Chymotrypsin was then added to a series of labeled protein reactions at final concentrations of 0, 37.5, 75, 150 and 300.micro.g per ml, and digestion proceeded for 20 minutes.

[1] = system: H460, MGC80-3 and LNCaP cells; experiment: cytochrome c release by immunostaining; format: cell-based; conditions: 75 μM, 6 hr
Experimental: To uncover the consequence of RXRα mitochondrial localization induced by sulindac sulfide, H460, MGC80-3 and LnCap cells were treated with or without sulindac sulfide and RXRα mitochondrial and cytochrome c release were determined by immunostaining, as described above. Cells were treated with or without sulindac sulfide (75.micro.M) for 6 hr. Cells were then stained with RXRα, Hsp6, and cytochrome c (cyt c).

endogenous RXRα localization (RXRα; Calu-6, H460, LNCaP, ZR-75-1, MGC80-3 and HEK293T cells, 75 μM, 6 hr): found mainly in the cytoplasm
transfected RXRα localization (RXRα; HEK293T cells, sulindac sulfide): found in the cytoplasm
binding to RXR.alpha by ITC (RXR.alpha): confirmed the binding
SMILES: CSc1ccc(/C=C2/C(C)=C(CC(=O)O)c3cc(F)ccc32)cc1 [sulindac sulfide]
RXRα mitochondrial localization (RXRα; H460, MGC80-3 and LNCaP cells, 75 μM, 6 hr): results in RXRα mitochondrial localization
sensitivity of RXRα protein to chymotrypsin (RXRα LBD protein): modulation of sensitivity of RXRα protein to chymotrypsin
cytochrome c release [1]: massively released

From US8105798B2, “Cytoplasmic activity of retinoid X receptor and its regulation by ligands and dimerization” (The Burnham Institute, priority 2003, dated 2012)
